# In US20260035384A1, “COMPOUND CONTAINING CYCLOHEXYL” (CHIA TAI TIANQING PHARMACEUTICAL GROUP CO., LTD., priority 2022, published 2026):
# Numbering of substitutions follows the chain as printed. pIC50: −log10 of the molar value.
# Tests used:
# Assay type in all cases: cell-based
# [1] = test system: LNCaP cells; assay: Assay on inhibitory activity for LNCaP cell proliferation (CCK-8); conditions: 168 h incubation
# Protocol: (§1) LNCaP cells in a good growth state were taken, washed with PBS, digested with pancreatin, and added with 2% CSS—FBS phenol red-free 1640 complete medium to terminate the digestion. The cells were collected by using a centrifuge tube, adjusted to a cell density of 1×10^5 cells/mL, and seeded in a 96-well plate (100 μL/well). Meanwhile, compounds were added using a nanoliter pipettor such that the final concentrations of the compounds were 10000 nM-0.61 nM. Two duplicate wells were set for each concentration, and meanwhile, a control was set. After another 168 h of incubation in the cell incubator, the detection reagent CCK-8 (manufacturer: Dojindo, 10 μL/well) was added.
# [2] = biological target: T1, AR in LNCaP cells (Homo sapiens, UniProt P10275, T878A); assay: Assay on degradation activity for AR in LNCaP cells (HTRF human androgen receptor detection kit); conditions: 24 h incubation; for DC50: HTRF; for Dmax: maximum degradation rate
# T1 construct: Assay on Degradation Activity for AR in LNCaP Cells; endogenous in cells; host or cells: LNCaP cells
# T1 sequence (P10275 1-920 T878A): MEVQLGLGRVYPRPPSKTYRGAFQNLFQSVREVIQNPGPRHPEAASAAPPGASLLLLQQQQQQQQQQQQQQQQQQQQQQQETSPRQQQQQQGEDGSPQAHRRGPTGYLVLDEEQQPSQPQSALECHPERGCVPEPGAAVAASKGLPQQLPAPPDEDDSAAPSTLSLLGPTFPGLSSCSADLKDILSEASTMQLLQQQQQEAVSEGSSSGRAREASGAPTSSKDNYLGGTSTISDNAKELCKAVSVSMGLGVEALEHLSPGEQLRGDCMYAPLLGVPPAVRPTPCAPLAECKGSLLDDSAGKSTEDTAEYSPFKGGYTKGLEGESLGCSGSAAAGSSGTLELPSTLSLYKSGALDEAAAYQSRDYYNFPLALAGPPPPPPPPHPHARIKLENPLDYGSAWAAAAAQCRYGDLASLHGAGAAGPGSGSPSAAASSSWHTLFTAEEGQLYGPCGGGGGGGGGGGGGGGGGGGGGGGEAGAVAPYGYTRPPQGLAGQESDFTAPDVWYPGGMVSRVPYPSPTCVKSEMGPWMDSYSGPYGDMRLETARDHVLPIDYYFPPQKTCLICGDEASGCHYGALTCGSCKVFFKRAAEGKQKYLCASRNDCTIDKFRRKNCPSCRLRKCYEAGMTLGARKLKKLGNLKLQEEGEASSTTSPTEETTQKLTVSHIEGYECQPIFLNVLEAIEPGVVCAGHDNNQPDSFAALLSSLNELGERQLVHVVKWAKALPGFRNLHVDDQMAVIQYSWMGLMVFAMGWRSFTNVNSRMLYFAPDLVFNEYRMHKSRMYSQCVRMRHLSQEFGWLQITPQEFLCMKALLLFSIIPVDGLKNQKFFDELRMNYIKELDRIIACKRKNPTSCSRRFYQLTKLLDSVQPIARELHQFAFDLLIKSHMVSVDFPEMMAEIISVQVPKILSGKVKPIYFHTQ
# Protocol: (§2) The detection was carried out using the HTRF HUMAN ANDROGEN RECEPTOR DETECTION KIT (cisbio, 64ANDRPEG), 4× Supplemented Lysis buffer was prepared using the Blocking reagent stock solution (100×) and Lysis buffer stock solution (4×), and 1× Supplemented Lysis buffer was prepared using the 4× Supplemented Lysis buffer and ddH2O. Premixed antibody solutions were prepared using Detection buffer, Androgen Receptor Eu Cryptate antibody, and Androgen Receptor d2 antibody.
# (§3) LNCaP cells in a good growth state were taken, washed with PBS, digested with pancreatin, and added with 2% CSS—FBS phenol red-free 1640 complete medium to terminate the digestion. The cells were collected by using a centrifuge tube, adjusted to a cell density of 1×10^6 cells/mL, and seeded in a 96-well plate (100 μL/well). The cells were incubated overnight in a cell incubator. Compounds were added using a nanoliter pipettor such that the final concentrations of the compounds were 500 nM-0.488 nM. Two duplicate wells were set for each concentration, and meanwhile, a control was set. After another 24 h of incubation in the cell incubator, the medium was pipetted out, the 1× Supplemented Lysis buffer was added at 40 μL/well to lyse the cells. After the cells were oscillated for 40 min at room temperature, 16 μL of the cell lysate was added to a 384-well plate, the Premixed antibody solutions were added at 4 μL/well, and the mixture was left to stand at 25° C. for 2 h. Fluorescence values were detected at 665 nm/620 nm using an Envision microplate reader, the four-parameter analysis was performed, the dose-response curves were fit, and DC50 (the concentration of the drug when the degradation rate reaches 50%) and Dmax (the maximum degradation rate) were calculated.
# [3] = biological target: T2, AR in VCaP cells (Homo sapiens, UniProt P10275); assay: Assay on degradation activity for AR in VCaP cells (HTRF human androgen receptor detection kit); conditions: 24 h incubation
# T2 construct: Assay on Degradation Activity for AR in VCaP Cells; endogenous in cells; host or cells: VCaP cells
# T2 sequence (P10275 1-920): T1 sequence (P10275 1-920 T878A) with A878T
# Protocol: as §2
# as §3, with “VCaP” for “LNCaP”, “DMEM” for “1640”, “µL/well).” for “μL/well).”, “1000 nM-0.977” for “500 nM-0.488”
# [4] = test system: VCaP cells; assay: Assay on inhibitory activity for VCaP cell proliferation (CCK-8); conditions: 168 h incubation
# Protocol: as §1, with “2.1 Assay on inhibitory activity for VCaP cell proliferation VCaP” for “LNCaP”, “5%” for “2%”, “DMEM” for “1640”
Compound,DC50 [3] [nM],pIC50 ([1]; Homo sapiens),further results
N#Cc1ccc(O[C@H]2CC[C@H](NC(=O)c3ccc(N4CCC5(CC4)CC(CN4CCc6c(ccc7c(C8CCC(=O)NC8=O)noc67)C4)C5)nn3)CC2)cc1Cl (some centres unmarked) [Compound 36],≤ 1,> 6.00,DC50 [2]: ≤ 20 nM; Dmax [2]: > 80%; pIC50 ([4]; Homo sapiens): > 8.00
N#Cc1ccc(O[C@H]2CC[C@H](NC(=O)c3ccc(N4CCC5(CC4)CC(CN4CCc6ccc7c(C8CCC(=O)NC8=O)noc7c6CC4)C5)nn3)CC2)cc1Cl (some centres unmarked) [Compound 37],≤ 1,> 6.00,DC50 [2]: ≤ 20 nM; Dmax [2]: > 80%; pIC50 ([4]; Homo sapiens): > 7.00
CN(c1ccc(C#N)c(Cl)c1)[C@H]1CC[C@H](NC(=O)c2ccc(N3CCC(CN4CCc5c(ccc6c(C7CCC(=O)NC7=O)noc56)C4)CC3)cc2)CC1 (some centres unmarked) [Compound 58],≤ 1,> 6.00,pIC50 ([4]; Homo sapiens): > 8.00
CN(c1ccc(C#N)c(Cl)c1)[C@H]1CC[C@H](NC(=O)c2ccc(N3CCN(CC4Cc5ccc6c(C7CCC(=O)NC7=O)noc6c5C4)CC3)cc2)CC1 (some centres unmarked) [Compound 71],≤ 1,–,–
N#Cc1ccc(O[C@H]2CC[C@H](NC(=O)c3ccc(N4CCC(N5CC(CN6CCc7c(ccc8c(C9CCC(=O)NC9=O)noc78)C6)C5)CC4)cc3)CC2)cc1Cl (some centres unmarked) [Compound 82],≤ 1,> 6.00,–
N#Cc1ccc(O[C@H]2CC[C@H](NC(=O)c3ccc(N4CCC(N5CC(N6CCc7ccc8c(C9CCC(=O)NC9=O)noc8c7CC6)C5)CC4)nn3)CC2)cc1Cl (some centres unmarked) [Compound 95],≤ 1,> 6.00,pIC50 ([4]; Homo sapiens): > 7.00
N#Cc1ccc(O[C@H]2CC[C@H](NC(=O)c3ccc(N4CCN(C5CN(CC6Cc7ccc8c(C9CCC(=O)NC9=O)coc8c7C6)C5)CC4)nn3)CC2)cc1Cl (some centres unmarked) [Compound 108],≤ 1,–,pIC50 [1]: > 6.00; pIC50 [4]: > 8.00
CN(c1ccc(C#N)c(Cl)c1)[C@H]1CC[C@H](NC(=O)c2ccc(N3CC(CN4CCc5c(ccc6c(C7CCC(=O)NC7=O)noc56)C4)C3)cc2)CC1 (some centres unmarked) [Compound 113],≤ 1,> 6.00,pIC50 ([4]; Homo sapiens): > 7.00

# More lines, main results first:
DC50 [3] [nM],Compound,pIC50 ([1]; Homo sapiens),further results
≤ 1,N#Cc1ccc(O[C@H]2CC[C@H](NC(=O)c3ccc(N4CCC(N5CC(CN6Cc7ccc8c(C9CCC(=O)NC9=O)noc8c7C6)C5)CC4)cc3)CC2)cc1Cl (some centres unmarked) [Compound 80],–,–
≤ 1,N#Cc1ccc(O[C@H]2CC[C@H](NC(=O)c3ccc(N4CCC(N5CC(CN6CCc7ccc8c(C9CCC(=O)NC9=O)noc8c7C6)C5)CC4)cc3)CC2)cc1Cl (some centres unmarked) [Compound 81],–,–
≤ 1,N#Cc1ccc(O[C@H]2CC[C@H](NC(=O)c3ccc(N4CCC(N5CCC(CN6Cc7ccc8c(C9CCC(=O)NC9=O)noc8c7C6)CC5)CC4)nn3)CC2)cc1Cl (some centres unmarked) [Compound 86],–,–
≤ 1,N#Cc1ccc(O[C@H]2CC[C@H](NC(=O)c3ccc(N4CCC(N5CCC(CN6CCc7ccc8c(C9CCC(=O)NC9=O)noc8c7C6)CC5)CC4)nn3)CC2)cc1Cl (some centres unmarked) [Compound 87],–,–
≤ 1,N#Cc1ccc(O[C@H]2CC[C@H](NC(=O)c3ccc(N4CCC(N5CCC(CN6CCc7c(ccc8c(C9CCC(=O)NC9=O)noc78)C6)CC5)CC4)nn3)CC2)cc1Cl (some centres unmarked) [Compound 88],> 6.00,–
≤ 1,N#Cc1ccc(O[C@H]2CC[C@H](NC(=O)c3ccc(N4CCC(N5CC(CN6CCc7ccc8c(C9CCC(=O)NC9=O)noc8c7C6)C5)CC4)nn3)CC2)cc1Cl (some centres unmarked) [Compound 91],> 6.00,"DC50 [2]: ≤ 20 nM; Dmax [2]: > 80%; pIC50 ([4]; Homo sapiens, VCaP, 168 h): > 8.00"
≤ 1,N#Cc1ccc(O[C@H]2CC[C@H](NC(=O)c3ccc(N4CCC(N5CC(CN6CCc7c(ccc8c(C9CCC(=O)NC9=O)noc78)C6)C5)CC4)nn3)CC2)cc1Cl (some centres unmarked) [Compound 92],> 6.00,"pIC50 ([4]; Homo sapiens, VCaP, 168 h): > 8.00"
≤ 1,N#Cc1ccc(O[C@H]2CC[C@H](NC(=O)c3ccc(N4CCC(N5CC(N6Cc7ccc8c(C9CCC(=O)NC9=O)coc8c7C6)C5)CC4)nn3)CC2)cc1Cl (some centres unmarked) [Compound 96],> 6.00,"pIC50 ([4]; Homo sapiens, VCaP, 168 h): > 8.00"
≤ 1,N#Cc1ccc(O[C@H]2CC[C@H](NC(=O)c3ccc(N4CCC(N5CC(CN6Cc7ccc8c(C9CCC(=O)NC9=O)coc8c7C6)C5)CC4)nn3)CC2)cc1Cl (some centres unmarked) [Compound 98],> 6.00,"DC50 [2]: ≤ 20 nM; Dmax [2]: > 80%; pIC50 ([4]; Homo sapiens, VCaP, 168 h): > 7.00"
